Patent publication US20210353593A1 (Chinook Therapeutics, Inc., priority 2019, published 2021)
Entries after “also recorded” stand apart in the source; their conditions may differ. Like-named read-outs stand apart in the source and are kept apart here.

How the values were obtained:
[1] = tested on: primary human renal mesangial cells (HRMCs); assay: Proliferation (BrdU) of primary human renal mesangial cells stimulated with IgA-containing immune complexes; type: cell-based
From the text: Primary human mesangial cells in a culture were stimulated with pathogenic galactose deficient (Gd)-IgA containing immune complexes isolated from human IgA nephropathy patients.
Specifically, pathogenic IgA-containing immune complexes were isolated from serum from either IgA nephropathy patients or age, gender and ethnicity-matched healthy individuals. Frozen serum was purchased from BioIVT and IgA-containing immune complexes were purified using jacalin affinity chromatography. […] Purified IgA-containing immune complexes were concentrated using a 100K Amicon filtration unit and the amount of total IgA and galactose-deficient IgA (Gd-IgA) in the immune complexes was measured by ELISA (ThermoFisher and IBL America, respectively). […] See, e.g., Novak et. al., Kidney International, 67, pp. 504-516; 2005; Novak et. al., Nephrol. Dial. Transplant, 26, pp. 3451-3457; 2011; Liang et. al., Cell Physiol. Biochem., 36, pp. 1793-1808; 2015; Nguyen et. al., Clin. Kidney 1, 12 (2), pp, 232-238; 2019.

[2] = tested on: kidney tissue of g-ddY mice
[3] = 10 mg/kg/day vs untreated control
[4] = 20 mg/kg/day vs untreated control
[5] = 30 mg/kg/day vs untreated control

## CCCCN(CCCC)C(=O)CN1C[C@H](c2ccc3c(c2)OCO3)[C@@H](C(=O)O)[C@@H]1c1ccc(OC)cc1 [Atrasentan, (2R,3R,4S)-4-(1,3-benzodioxol-5-yl)-1-[2-(dibutylamino)-2-oxoethyl]-2-(4-methoxyphenyl)pyrrolidine-3-carboxylic acid]
[1]; IgA containing serum fractions from healthy controls
  basal cell proliferation in HRMCs: no effect
[1]; immune complexes from three separate IgAN patients, BrdU
  proliferation of HRMCs induced by IgA containing immune complexes from patients with IgA nephropathy: reduces the proliferation; also recorded: significantly attenuated the hyperproliferation
[2]; 10 mg/kg/day versus control
  number of downregulated genes: 15 genes
  number of upregulated genes: 25 genes
[2]; 10 mg/kg/day vs control
  Acnat2 logFC: 0.9174
  Apoc1 logFC: −1.929
  Arnt1 logFC: 1.039
  Asl logFC: 0.707
  Bckdha logFC: 0.5492
  Bmp6 logFC: 0.7141
  Ccn1 logFC: −1.087
  Ccn2 logFC: −0.5379
  Cish logFC: −1.301
  Cryl1 logFC: 0.5206
  Dbp logFC: −1.205
  Dpep1 logFC: 0.6476
  Ethe1 logFC: 0.941
  Filipl1 logFC: −0.8186
  Frmd4b logFC: 0.6863
  Gapdh logFC: 0.6257
  Gem logFC: −1.508
  Gm15910 logFC: −1.397
  Hacl1 logFC: 0.6805
  Igf1 logFC: −0.8723
  Mapt logFC: 0.7035
  Mef2c logFC: −0.6217
  Mmd logFC: −1.012
  Mnt logFC: 0.6669
  Ndrg1 logFC: 0.9887
  Npas2 logFC: 1.415
  Nr4a1 logFC: −1.525
  Pde3b logFC: −0.6611
  Pdzd3 logFC: 0.7268
  Pdzk1ip1 logFC: 0.5308
  Pfkffb3 logFC: −1.166
  S100g logFC: 0.7546
  Sirt3 logFC: 0.7376
  Slc5a2 logFC: 0.7478
  Slc6a19 logFC: 0.8567
  Slc7a9 logFC: 0.5456
  Slc16a1 logFC: 0.9808
  Slc19a1 logFC: 0.6451
  Slc34a3 logFC: 0.8923
  Zeb2 logFC: −0.5638
[2]; [3]
  ET1 gene signature genes downregulated: Grk5, Mllt3, Klf2, Pparg, Hgf, Edn1, Fos, Ptgs2, and IL-1b
  ET1 gene signature genes upregulated: Ccnd1, Ppara, Agt, Map2k2 and Hoxa9
[2]; 20 mg/kg/day versus control
  number of downregulated genes: 281 genes
  number of upregulated genes: 214 genes
[2]; 20 mg/kg/day vs control
  1700101I11Rik logFC: 1.658
  A530016L24Rik logFC: −3.027
  Abcd2 logFC: −2.686
  Adcy2 logFC: −2.484
  Ankef1 logFC: −3.382
  Apol6 logFC: −3.616
  Aspdh logFC: 0.9646
  Bche logFC: −4.062
  C5ar2 logFC: −4.271
  Cadm3 logFC: −2.439
  Ccl8 logFC: −2.999
  Ccl20 logFC: −3.563
  Clec2h logFC: 1.078
  Cndp1 logFC: 0.9373
  Dio2 logFC: −3.823
  Dnase1 logFC: 1.086
  Ebf2 logFC: −3.715
  Fcamr logFC: 1.182
  Frs3 logFC: 1.094
  Ftcd logFC: 1.086
  Glis1 logFC: 0.8776
  Hao2 logFC: 0.9855
  Hrg logFC: 4.888
  Igibp1 logFC: 2.82
  Il1b logFC: −3.029
  Iv1 logFC: −3.8887
  Klf15 logFC: 0.8799
  Krt5 logFC: −3.044
  Lep logFC: −5.905
  Lgals12 logFC: −2.536
  Lhx1 logFC: 0.9258
  Ly6d logFC: −3.377
  Morn2 logFC: 0.9375
  Nat81 logFC: −3.263
  Ndrg1 logFC: 0.8946
  Npas2 logFC: 1.012
  Otop1 logFC: −5.808
  Paral1 logFC: −5.133
  Pfn3 logFC: 0.934
  Plekhs1 logFC: −3.661
  Prkar2b logFC: −2.468
  Prodh logFC: 0.8987
  Pvalb logFC: 0.9441
  Ren1 logFC: 1.117
  Slc6a19 logFC: 0.9585
  Slc34a3 logFC: 0.9345
  Sprr2a3 logFC: −4.403
  Tmem37 logFC: 0.9439
  Tns4 logFC: −2.381
[2]; [4]
  ET1 gene signature genes downregulated: Nfatc1, Grk5, Klf2, Cav1, Pparg, Itga5, Myc, Ednra, Sell, Hgf, Mmp2, Edn1, Syk, Fos, and IL-1b
  ET1 gene signature genes upregulated: Ccdn1, Cat, Ppara, Map2k2, Hoxa9, Agt, and Egfr
[2]; 30 mg/kg/day
  Ednra and Ednrb gene expression: downregulated
[2]; 30 mg/kg/day versus control
  number of downregulated genes: 768 genes
  number of upregulated genes: 910 genes
[2]; 30 mg/kg/day vs control
  1700003D09Rik logFC: −2.087
  1700101I11Rik logFC: 1.613
  A530016L24Rik logFC: −3.0348
  Adamts17 logFC: −3.191
  Adcy2 logFC: −2.327
  Ankef1 logFC: −2.3582
  Arhgap36 logFC: −2.908
  Atf3 logFC: −2.22
  Bhmt logFC: 4.173
  Calb1 logFC: 1.211
  Ccl20 logFC: −2.471
  Chadl logFC: 1.41
  Clec2h logFC: 1.215
  Clec4d logFC: −4.65
  Cxcl2 logFC: −2.6664
  Cyp27b1 logFC: 1.35
  E030018B13Rik logFC: −2.373
  Ebf2 logFC: −2.386
  Ethe1 logFC: 1.211
  Fam163b logFC: −2.785
  Fat3 logFC: −2.067
  Frs3 logFC: 1.176
  G6pc logFC: 1.207
  Gm20026 logFC: −2.0755
  Igfbp1 logFC: 3.447
  Igkv3-5 logFC: −2.722
  Il1b logFC: −2.263
  Kcnk2 logFC: −2.431
  Kif1a logFC: −2.108
  Misp3 logFC: 1.307
  Mogat2 logFC: 1.285
  Ndrg1 logFC: 1.197
  Nepn logFC: 1.291
  Nkx3-1 logFC: 1.294
  Npas2 logFC: 1.394
  Pgam2 logFC: 1.24
  Plch2 logFC: −2.423
  Pvalb logFC: 1.389
  Ren1 logFC: 1.531
  Rnf182 logFC: −2.817
  S100g logFC: 1.296
  Slc6a19 logFC: 1.238
  Slc16a1 logFC: 1.178
  Slc34a3 logFC: 1.436
  Stx1b logFC: −2.245
  Tns4 logFC: −2.443
  Wnt10a logFC: −2.071
  Xirp2 logFC: −2.619
[2]; [5]
  ET1 gene signature genes downregulated: Ednrb, Myc, Mllt3, Hdac7, Ednra, Itga5, Grk5, Pparg, Klf2, Hgf, Mmp2, Sell, Sphk1, Fos, Syk, Edn1, and IL-1b
  ET1 gene signature genes upregulated: Ccnd1, Agt, Cat, Map2k2, Hoxa9, and Ppara
[2]; all three doses (10, 20, 30 mg/kg/day)
  ET1 (End1) gene expression: downregulated
[2]; atrasentan treated mice
  genes overlapping with human specific Atra/ET1 gene signature: 53 of 60
